From patent publication US8617604B2, “Pharmaceutical compositions with enhanced performance” (Bend Research, Inc., priority 2005, dated 2013)
Where two headings read alike, the source gives them in different places. Blank lines part the entries; values can stand above or below the compound they belong to.

Key:
[1] = Microcentrifuge dissolution test; assay type: physicochemical
[2] = In vitro membrane permeation test (maximum flux of drug across membrane); details: 100 μgA/mL; for Maximum Flux of Drug 5: Table 15, feed 0.5 wt % NaTC/POPC, permeate 60 wt % decanol in decane
Text: An Accurel® PP 1E microporous polypropylene membrane was obtained from Membrana GmbH (Wuppertal, Germany). The membrane was washed in isopropyl alcohol and rinsed in methanol in a sonicating bath for one minute at ambient temperature, and then allowed to air dry at ambient temperature. The feed side of the membrane was then plasma-treated to render it hydrophilic by placing a sample of the membrane in a plasma chamber. The atmosphere of the plasma chamber was saturated with water vapor at a pressure of 550 mtorr. A plasma was then generated using radio frequency (RF) power inductively coupled into the chamber via annular electrodes at a power setting of 50 Watts for 45 seconds. The contact angle of a drop of water placed on the surface of the plasma-treated membrane was about 40°. The contact angle of a drop of water placed on the permeate side of the same membrane was greater than about 110°.
A permeate reservoir was formed by capping the open end of a glass tube having an inside diameter of about 2 54 cm by gluing a sample of the plasma-treated membrane to the tube using an epoxy-based glue (LOCTITE® E-30CL HYSOL® from Henkel Loctite Corp, Rocky HUI, Conn.). The membrane was oriented so that its feed side was on the outside of the permeate reservoir and its permeate side was on the inside of the reservoir. The effective membrane area of the membrane capping the permeate reservoir was about 4.9 cm^2. The permeate reservoir was placed into a glass feed reservoir. The feed reservoir was equipped with a magnetic stir bar and the reservoir was placed on a stir plate and the stir rate was set to 100 rpm during the test. The apparatus was placed into a chamber maintained at 37° C. for the duration of the test.
To this was added 5 mL of an aqueous solution designed to model the fed state, consisting of a Phosphate Buffered Solution (PBS) containing 29.2 mM or 2 wt % sodium taurocholic acid and 5.6 mM of 1-palmitoyl-2-oleyl-sn-glycero-3-phosphocholine (NaTC/POPC). […] The feed solution was mixed using a vortex mixer for 1 minute. Before the membrane contacted the feed solution, 5 mL of 20 wt % decanol in decane was placed into the permeate reservoir. Time zero in the test was when the membrane was placed in contact with the feed solution. A 50 μL aliquot of the permeate solution was collected at 20, 40, 60, 90, 120, 180, 240, and 350 minutes. Samples were then diluted in 250 μL isopropyl alcohol and analyzed using HPLC.
The maximum flux of drug across the membrane (in units of μgA/cm^2-min) was determined by performing a least-squares fit to the data to obtain the maximum slope, multiplying the slope by the permeate volume (5 mL), and dividing by the membrane area (4.9 cm^2).
The maximum flux of drug across the membrane (in units of μgA/cm^2-min) was determined by estimating the tangent to the concentration versus time curve at time 0.
To this was added 5 mL of the Model Fasted Duodenum (MFD) solution consisting of Phosphate Buffered Saline (PBS) solution containing 7.3 mM sodium taurocholic acid and 1.4 mM of 1-palmitoyl-2-oleyl-sn-glycero-3-phosphocholine (0.5% NaTC/POPC). […] The feed solutions were each mixed using a vortex mixer for 1 minute. Before the membrane contacted the feed solutions, 5 mL of 20 wt % decanol in n-decane was placed into the permeate reservoir. Time zero in the test was when the membrane was placed in contact with the feed solution. […] Samples were then diluted in 250 μL isopropyl alcohol and analyzed using HPLC.

[3] = Aqueous solubility of the drugs; assay type: physicochemical; details: aqueous medium (not specified further)
[4] = Table 18, Drug 1, PBS pH 6.5, 37° C., 1000 μgA/mL
[5] = Table 20, Drug 1, microcentrifuge dissolution test described above
[6] = Table 19, Drug 2, MFD solution, 1000 μgA/mL

AUC90 ([1]; Table 11, Drug 1, PBS pH 6.5, 37° C., area under the curve from 0 to 90 minutes): <88 min · μgA/mL | MDC90 ([1]; Table 11, Drug 1, PBS pH 6.5, 37° C., maximum drug concentration between 0 and 90 minutes): <1 μgA/mL | AUC90 [1, 4]: <100 min · μgA/mL | MDC90 [1, 4]: <1 μgA/mL | AUC90 [1, 5]: <100 min · μgA/mL | MDC90 [1, 5]: <1 μgA/mL | Maximum Flux of Drug 1 (120 μg/mL): 0.091 μgA/cm^2-min | Maximum Flux of Drug 1 (120 μgA/mL): 0.08 μgA/cm^2-min
Compound: CCOC(=O)N1c2ccc(C(F)(F)F)cc2[C@@H](N(Cc2cc(C(F)(F)F)cc(C(F)(F)F)c2)C(=O)OC)C[C@H]1CC [Control C1]

AUC90 [1, 6]: 4200 min · μgA/mL | MDC90 [1, 6]: 101 μgA/mL
Compound: O=C(NOCC1CC1)c1ccc(F)c(F)c1Nc1ccc(I)cc1Cl [Control C2]

Maximum Drug Flux ([2]; Table 21, Drug 4, feed 0.5% NaTC/POPC (MFD), permeate 60 wt % decanol in n-decane): 0.16 μgA/cm^2-min
Compound: O=C1Cc2cc(CCN3CCN(c4nsc5ccccc45)CC3)c(Cl)cc2N1 [Control C4]

Maximum Flux of Drug 5 [2]: 0.099 μgA/cm^2-min
Compound: O=C1Cc2cc(CCN3CCN(c4nsc5ccccc45)CC3)c(Cl)cc2N1 [Control C5]

Maximum Flux of Drug 5 [2]: 0.07 μgA/cm^2-min
Compound: O=C1Cc2cc(CCN3CCN(c4nsc5ccccc45)CC3)c(Cl)cc2N1 [Control C6]

solubility [3]: < 0.1 µg/mL
Compound: CCOC(=O)N1c2ccc(C(F)(F)F)cc2[C@@H](N(Cc2cc(C(F)(F)F)cc(C(F)(F)F)c2)C(=O)OC)C[C@H]1CC [Drug 1, [2R,4S]-4[(3,5-bis-trifluoromethyl-benzyl)-methoxycarbonyl-amino]-2-ethyl-6-trifluoromethyl-3,4-dihydro-2H-quinoline-1-carboxylic acid ethyl ester]

solubility ([3]; free base form): < 0.1 µg/mL | solubility ([3]; hydrochloride salt form): ~10 µg/mL
Compound: O=C1Cc2cc(CCN3CCN(c4nsc5ccccc45)CC3)c(Cl)cc2N1 [Drug 4]
